Calls of active or inactive are those of the source. The rule behind the calls is not given here.
Key:
Erythrocyte [1] = assay: Induction of eryptosis in human erythrocytes assessed as hemolysis-mediated hemoglobin release at 1 uM after 48 hrs by photometric analysis; format: functional, cell-based
Erythrocyte [2] = assay: Induction of apoptosis in human erythrocytes assessed as scrambling of the cell membrane at 0.5 to 10 uM after 48 hrs using Annexin V-FITC staining by confocal laser scanning microscopy in presence of Ca2+; format: functional, cell-based
Erythrocyte [3] = assay: Induction of eryptosis in human erythrocytes assessed as cell shrinkage measuring decrease in forward scatter of the cells at 5 uM after 48 hrs by […] FACS analysis; format: functional
Erythrocyte [4] = assay: Induction of eryptosis in human erythrocytes assessed as phospholipid scrambling of the cell membrane at 10 uM after 48 hrs using Annexin V-FITC staining by confocal laser scanning microscopy in absence of Ca2+; format: functional, cell-based
Erythrocyte [5] = assay: Induction of eryptosis in human erythrocytes assessed as phospholipid scrambling of the cell membrane at >= 5 uM after 48 hrs using Annexin V-FITC staining by confocal laser scanning microscopy; format: functional, cell-based
Erythrocyte [6] = assay: Induction of eryptosis in human erythrocytes assessed as stimulation of ceramide formation at 10 uM after 48 hrs by FITC-based flow cytometry; format: functional, cell-based
Erythrocyte [7] = assay: Induction of eryptosis in human erythrocytes assessed as increase in cytosolic Ca2+ concentration at >= 5 uM after 48 hrs by fluo-3/AM-fluorescence-based FACS analysis; format: functional, cell-based
Erythrocyte [8] = assay: Induction of eryptosis in human erythrocytes assessed as decrease in intracellular ATP concentration at 10 uM after 48 hrs by luciferase-based luminometry; format: functional, cell-based

## C[C@H]1[C@H](C)CC[C@]2(C(=O)O)CC[C@]3(C)C(=CC[C@@H]4[C@@]5(C)CC[C@H](O)C(C)(C)[C@@H]5CC[C@]43C)[C@H]12
Erythrocyte [1]
  Activity: Active
Erythrocyte [2]
  Activity: Active
Erythrocyte [3]
  Activity: Active
Erythrocyte [4]
  Activity: inactive
Erythrocyte [5]
  Activity: Active
Erythrocyte [6]
  Activity: inactive
Erythrocyte [7]
  Activity: Active
Erythrocyte [8]
  Activity: inactive

— ChEMBL document CHEMBL1921741, “Triggering of erythrocyte cell membrane scrambling by ursolic acid” (J Nat Prod, 2011)
